Results as given in patent US5504071A, “Compounds with a sequence of three radicals, the central one being α- a” (Polifarma S.p.A., priority 1990, dated 1996).
Square brackets hold non-standard residues; d marks the D form. Peptide text beside a SMILES is read from it. * marks the point of attachment. Trp(1-Me) = Cn1cc(C[C@H](N)C(=O)O)c2ccccc21; Tic = O=C(O)[C@@H]1Cc2ccccc2CN1; pGlu = O=C1CC[CH](C(=O)O)N1; Hyp = O=C(O)[CH]1C[CH](O)CN1; Phg = N[CH](C(=O)O)c1ccccc1; ΔPro = O=C(O)[C@@H]1C=CCN1; Pip = O=C(O)[C@@H]1CCCCN1; αMeP = C[C]1(C(=O)O)CCCN1; Cbz = O=C(OCc1ccccc1)*; Aze = O=C(O)[CH]1CCN1; Boc = CC(C)(C)OC(=O)*

Columns and labels:
[1] = Hot Plate test (analgesic activity); assay type: in vivo
Excerpt: (§1) In the following examples will first of all be given the data necessary for synthesis of the compounds according to the present invention. There will then be given data regarding their pharmacological activity, using methods widely known to be valid. In particular, for the pressure tests, spontaneously hyper-tensive rats were used (SHR from the company Charles River), operated in such a way as to enable pressure to be read even when the animals were awake and free to move. In order to evaluate the analgesic activity, the Hot Plate and Writhing Tests were used. For the anti-inflammatory effect the test of carraginine edema was used. Finally, for immuno-modulating activity the evaluation of the stimulation of growth of human lymphocytes in culture was resorted to, after the addition of specific antigens. The results obtained for each synthesized compound are given at the end of each example.

[2] = test system: spontaneously hyper-tensive rats (SHR); assay: pressure tests in awake spontaneously hypertensive rats; assay type: in vivo
Excerpt: as §1

[3] = test system: human lymphocytes in culture; assay: stimulation of growth of human lymphocytes in culture after addition of specific antigens; assay type: cell-based; conditions: for immune response (immuno-stimulating activity): antigen not stated
Excerpt: as §1

[4] = Writhing test (analgesic activity); assay type: in vivo; conditions: dose not stated
Excerpt: as §1

[5] = analgesic activity, test not specified (Hot Plate and Writhing Tests); assay type: in vivo; conditions: test and dose not stated
Excerpt: as §1

carraginine edema = carraginine edema test (anti-inflammatory effect); assay type: in vivo; conditions: dose not stated
Excerpt: as §1

## CCOC(=O)[C@@H]1Cc2c([nH]c3ccccc23)CN1C(=O)[C@H](C)NC(=O)[C@@H]1CCCN1C(=O)OCc1ccccc1 [compound 1, Z-(L)-Pro-(L)-Ala-(S)-CytOEt]
[1]; 4 mg/Kg i.p.
  pain killing effect under the Hot Plate test: slight pain killing effect
[2]; 4 mg/Kg i.p.
  anti-hypertensive effect: good anti-hypertensive effect
  duration of the anti-hypertensive effect: maintained for a number of hours
[3]; PHA stimulation
  response of lymphocytes stimulated by phytohemoagglutinine (PHA): increases the response of lymphocytes

## C[C@H](NC(=O)[C@@H]1CCCN1C(=O)OCc1ccccc1)C(=O)NCCc1c[nH]c2ccccc12 [compound 2, Z-(L)-Pro-(L)-Ala-TrpH]
[2]; dose not stated
  anti-hypertensive effect: comparable to that of compound 1
[3]
  immune response (immuno-stimulating activity): increased, but to a lesser extent than in the previous compound

## C[C@H](NC(=O)[C@@H]1CCCN1C(=O)OCc1ccccc1)C(=O)N1CCc2c([nH]c3ccccc23)C1 [compound 3, Z-(L)-Pro-(L)-Ala-CytH]
[2]; 8 mg/Kg i.p.
  anti-hypertensive effect: bland anti-hypertensive effect

## COC(=O)[C@H](Cc1ccc(OC)cc1)NC(=O)[C@H](C)NC(=O)[C@@H]1CCCN1C(=O)OCc1ccccc1 [compound 4, Z-(L)-Pro-(L)-Ala-(L)-OmtOMe] (Cbz-Pro-Ala-Tyr(Me)-OMe)
[2]; 8 mg/Kg i.v.
  anti-hypertensive effect: bland anti-hypertensive effect
[3]
  immune response (immuno-stimulating activity): slightly increased

## COC(=O)[C@@H](NC(=O)[C@H](C)NC(=O)[C@@H]1CCCN1C(=O)OCc1ccccc1)c1ccccc1 [compound 5, Z-(L)-Pro-(L)-Ala-(L)-PhgOMe] (Cbz-Pro-Ala-[Phg]-OMe)
[1]; dose not stated
  analgesic effect using the Hot Plate test: moderate analgesic effect
[2]; 8 mg/Kg i.p.
  anti-hypertensive effect: bland anti-hypertensive effect

## COC[C@H](Cc1ccccc1)NC(=O)[C@H](C)NC(=O)[C@@H]1CCCN1C(=O)OCc1ccccc1 [compound 6, Z-(L)-Pro-(L)-Ala-(L)-Pme]
[1]; dose not stated
  extension of time in the Hot Plate test: 25%
[4]
  reduction of contorsions during the Writhing test: 70%
[5]
  analgesic activity: good analgesic activity
[2]; 2 mg/Kg i.v.
  anti-hypertensive effect: good anti-hypertensive activity
[2]; 2 mg/Kg i.v., after one hour
  reduction of pressure: approximately 25%
Carraginine edema
  anti-inflammatory effect: rather weak
[3]
  immune response (immuno-stimulating activity): more consistent

## COC(=O)[C@H](Cc1cn(C)c2ccccc12)NC(=O)[C@H](C)NC(=O)[C@@H]1CCCN1C(=O)OCc1ccccc1 [compound 7, Z-(L)-Pro-(L)-Ala-(1)-Me-(L)-TrpOMe] (Cbz-Pro-Ala-[Trp(1-Me)]-OMe)
[2]; 2 mg/Kg i.v.
  anti-hypertensive effect: good anti-hypertensive effect
  reduction of pressure: 10%

## COC(=O)[C@H](Cc1c[nH]c2ccccc12)NC(=O)[C@H](CC(C)C)NC(=O)c1ccco1 [compound 8, 2-Fur-(L)-Leu-(L)-TrpOMe]
[2]; 4 mg/Kg i.v.
  anti-hypertensive effect: slight anti-hypertensive effect
Carraginine edema
  anti-inflammatory effect: slight anti-inflammatory effect
[3]
  immune response (immuno-stimulating activity): strongly stimulated even with small doses of peptide

## COC(=O)[C@H](Cc1c[nH]c2ccccc12)NC(=O)[C@H](CC(C)C)NC(=O)c1ccc[nH]1 [compound 9, 2-Pyrrolyl-(L)-Leu-(L)-TrpOMe]
[2]; dose not stated
  anti-hypertensive effect: slight effect on pressure
Carraginine edema
  anti-inflammatory effect: bland reduction of inflammatory responses

## COC(=O)C(Cc1c[nH]c2ccccc12)NC(=O)C(CC(C)C)NC(=O)C1CCCN1C.Cl (centres unmarked) [compound 10, N-Me-(L)-Pro(L)-Leu-(L)-TrpOMe.HCl]
[5]
  analgesic activity: low analgesic effect
[2]; 2 mg/Kg i.v.
  anti-hypertensive effect: excellent anti-hypertensive effect
[3]
  immune response (immuno-stimulating activity): slightly increased

## COC(=O)[C@@H]1Cc2ccccc2CN1C(=O)[C@H](C)NC(=O)[C@@H]1CCCN1C(=O)OCc1ccccc1 [compound 11, Z-(L)-Pro-(L)-Ala-CypOMe] (Cbz-Pro-Ala-[Tic]-OMe)
[2]; dose not stated
  anti-hypertensive effect: slight anti-hypertensive effect
Carraginine edema
  anti-inflammatory effect: moderate anti-inflammatory effect

## COC(=O)C(Cc1c[nH]c2ccccc12)NC(=O)C(CC(C)C)NC(=O)C1(C)CCCN1C(=O)OC(C)(C)C (stereo not drawn) [compound 12, Boc-(L)-Mep-(L)-Leu-(L)TrpOMe] (Boc-[αMeP]-Leu-Trp-OMe; configuration not given here)
[2]; dose not stated
  anti-hypertensive effect: bland anti-hypertensive effect
Carraginine edema
  anti-inflammatory effect: reduction of the inflammatory response

## COC(=O)[C@H](Cc1c[nH]c2ccccc12)NC(=O)[C@H](CC(C)C)NC(=O)[C@@H]1C=CCN1C(=O)OC(C)(C)C [compound 13, Boc-.gradient.^3.4 -(L)-Pro-(L)-Leu-(L)-TrpOMe] (Boc-[ΔPro]-Leu-Trp-OMe)
[2]; dose not stated
  anti-hypertensive effect: slightly anti-hypertensive
[3]
  immune response (immuno-stimulating activity): slightly increases the immune response

## COC(=O)[C@H](Cc1c[nH]c2ccccc12)NC(=O)[C@H](CC(C)C)NC(=O)[C@@H]1Cc2ccccc2N1C(=O)OCc1ccccc1 [compound 14, Z-(S)-Dhi-(L)-Leu-(L)-TrpOMe]
[5]
  analgesic activity: moderate analgesic effect
[2]; dose not stated
  anti-hypertensive effect: bland reduction of pressure

## COC(=O)[C@H](Cc1c[nH]c2ccccc12)NC(=O)[C@H](CC(C)C)NC(=O)[C@@H]1CCCCN1C(=O)OCc1ccccc1 [compound 15, Z-(L)-Pip-(L)-Leu-(L)-TrpOMe] (Cbz-[Pip]-Leu-Trp-OMe)
[2]; 2 mg/Kg i.v.
  anti-hypertensive effect: good anti-hypertensive effect
  reduction of pressure: up to 30%
Carraginine edema
  anti-inflammatory effect: consistent
[3]
  immune response (immuno-stimulating activity): slight increase in immune response

## COC(=O)C(Cc1c[nH]c2ccccc12)NC(=O)C(CC(C)C)NC(=O)C1CC(O)CN1C(=O)OCc1ccccc1 (stereo not drawn) [compound 16, Z-(L)-Hyp-(L)-Leu-(L)-TrpOMe] (Cbz-[Hyp]-Leu-Trp-OMe; configuration not given here)
[5]
  analgesic activity: modest analgesic effect
[2]; dose not stated
  anti-hypertensive effect: bland anti-hypertensive action

## COC(=O)C(Cc1c[nH]c2ccccc12)NC(=O)C(CC(C)C)NC(=O)C1CCN1C(=O)OCc1ccccc1 [compound 17, Z-(S)-Aze-(L)-Leu-(L)-TrpOMe] (Cbz-[Aze]-Leu-Trp-OMe; configuration not given here)
[2]; dose not stated
  anti-hypertensive effect: slight anti-hypertensive effect
Carraginine edema
  anti-inflammatory effect: bland anti-inflammatory activity

## COC(=O)[C@H](Cc1c[nH]c2ccccc12)NC(=O)[C@H](CC(C)C)NC(=O)[C@@H]1CCCO1 [compound 18, (S)-Tfc-(L)-Leu-(L)-TrpOMe]
[2]; dose not stated
  anti-hypertensive effect: bland anti-hypertensive effect
[3]
  immune response (immuno-stimulating activity): stimulates the immune response in a moderate manner

## COC(=O)[C@H](Cc1c[nH]c2ccccc12)NC(=O)[C@H](CC(C)C)NC(=O)[C@@H]1CCC(=O)N1C(=O)OCc1ccccc1 [compound 19, Z-(L)-Pyr-(L)-Leu-(L)-TrpOMe]
[2]; dose not stated
  anti-hypertensive effect: slight anti-hypertensive effect
Carraginine edema
  anti-inflammatory effect: fair anti-inflammatory activity

## COC(=O)[C@@H]1Cc2c([nH]c3ccccc23)CN1C(=O)[C@H](CC(C)C)NC(=O)[C@@H]1CCC(=O)N1C(=O)OCc1ccccc1 [compound 20, Z-(L)-Pyr-(L)-Leu-(S)-CytOMe]
[2]; dose not stated
  anti-hypertensive effect: bland anti-hypertensive activity
Carraginine edema
  anti-inflammatory effect: fair anti-inflammatory activity

## COC(=O)[C@@H]1Cc2ccccc2CN1C(=O)[C@H](CC(C)C)NC(=O)[C@@H]1CCC(=O)N1C(=O)OCc1ccccc1 [compound 21, Z-CL)-Pyr-(L)-Leu-(S)-CypOMe]
[2]; dose not stated
  anti-hypertensive effect: slight anti-hypertensive activity
[3]
  immune response (immuno-stimulating activity): good immuno-stimulating activity

## COC(=O)C(NC(=O)CNC(=O)C1CCC(=O)N1)c1ccccc1 (stereo not drawn) [compound 22, (L)-Pyr-Gly-(L)-PhgOMe] ([pGlu]-Gly-[Phg]-OMe; configuration not given here)
[2]; 4 mg/Kg i.p.
  anti-hypertensive effect: excellent anti-hypertensive activity
  reduction of pressure values: 20%
Carraginine edema
  anti-inflammatory effect: very good
  reduction of edema: 70%
[3]
  immune response (immuno-stimulating activity): appears to increase the immune response

## COC[C@H](Cc1ccccc1)NC(=O)CNC(=O)[C@@H]1CCC(=O)N1 [compound 23, (L)-Pyr-Gly-(L)-Pme]
[4]
  reduction of contorsions during the Writhing test: 80%
[5]
  analgesic activity: excellent analgesic effect
[2]; 8 mg/Kg i.p.
  anti-hypertensive effect: good anti-hypertensive activity
[3]
  immune response (immuno-stimulating activity): good immuno-stimulating effect

## COC(=O)[C@@H]1Cc2ccccc2CN1C(=O)CNC(=O)[C@@H]1CCC(=O)N1 [compound 24, (L)-Pyr-Gly-(L)-CypOMe] ([pGlu]-Gly-[Tic]-OMe)
[2]; dose not stated
  anti-hypertensive effect: bland anti-hypertensive action
Carraginine edema
  anti-inflammatory effect: moderate anti-inflammatory action

## COC(=O)[C@@H]1Cc2c([nH]c3ccccc23)CN1C(=O)[C@H](CC(C)C)NC(=O)[C@@H]1CCC(=O)N1 [compound 25, (L)-Pyr-(L)-Leu-(S)-CytOMe]
[5]
  analgesic activity: weak analgesic activity
[2]; dose not stated
  anti-hypertensive effect: bland anti-hypertensive effect
